Reference: US20190298720A1, “USE OF SRC FAMILY KINASE INHIBITOR IN RIBOSOMAL DISORDER” (BIOXCEL CORPORATION, priority 2016, published 2019)
Entries after “also recorded” stand apart in the source; their conditions may differ.

Assays:
Lyn kinase = Lyn kinase activity in RPS19 knock-down zebrafish embryos; assay type: in vivo; details: 25 μM, 50 μM and 100 μM
[1] = test system: Id1 expression in lung cancer cell lines; details: cited from earlier work
[2] = test system: RPS19 knock-down zebrafish embryos; test: Erythropoiesis in a zebrafish model of DBA using RPS19 morpholino (o-dianisidine staining); assay type: in vivo; details: for % improvement of erythropoiesis / % intensity of staining: injected 1 cell stage & aqueous exposure, RPS19 Mo
Experimental: To evaluate the effect of Saracatinib, a Src kinase inhibitor (Lyn kinase) on improving erythropoiesis in a zebrafish model of DBA using RPS19 morpholino.
Materials: Zebrafish (One celled stage), RPS19 morpholino (1 ng) and standard control morpholino were dissolved in ultrapure water. Saracatinib (Selleckchem; Cat no. 51006) was dissolved in 1% DMSO to achieve […], 50 μM and 100 μM concentrations. 0-dianisidine staining solution was made by dissolving 100 mg of 0-dianisidine in 70 mL ethanol, Acetate buffer (49 mL, 0.1 M Sodium acetate and 51 mL, 0.1 M acetic acid), 3% Hydrogen peroxide and ultrapure water; Phosphate buffer saline (PBS), Para formaldehyde (PFA), Tricaine methane sulfonate (ms-222) and Bleach solution (equal parts of 1% Potassium hydroxide and 3% Hydrogen peroxide) were used in the experimental procedures.
(i) Control Mo, Egg water represents the zebrafish embryos which were injected with standard control morpholino, and 1% DMSO thriving in egg water, (ii) RPS19 Mo, Egg water represents wild type zebrafish embryos microinjected with 1 ng of RPS19 morpholino, and 1% DMSO; thriving in egg water, and (iii) RPS19 Mo+Saracatinib injected 1 cell stage and aqueous exposure represents zebrafish embryos which were microinjected with RPS19 morpholino and where Saracatinib was also microinjected at 1-cell stage along with adding Saracatinib in the aqueous phase or egg water.
The wild type zebrafish with egg water were placed in separate wells and were microinjected with standard control morpholino and 1% DMSO, which acted as normal control (Control Mo, Egg water). The wild type zebrafish eggs were injected with 1 ng of RPS19 morpholino and 1% DMSO at 1-cell stage (RPS19 Mo, Egg water), and were incubated at 28.5° C. for 96 hours. Saracatinib was microinjected in the zebra fish at one cell stage and also exposed in the media (aqueous exposure) to achieve optimal concentrations of 25 μM, 50 μM and 100 μM (RPS19 Mo+Saracatinib injected 1 cell stage and aqueous exposure). The experiment was carried out in the 6-well plates for control (Control Mo, Egg water); morpholinos group (RPS19 Mo, Egg water) and Saracatinib treatment group (RPS19 Mo+Saracatinib injected 1 cell stage and aqueous exposure) respectively. The incubation of the zebrafish in various groups was carried out up to 96 hours at 28.5° C. and the embryos were visually observed for any phenotypic changes or mortality. The embryos were euthanized at the end of the study by using tricaine methane sulfonate (ms-222), and fixed in 4% PFA for 2 hours at room temperature. After fixing and washing the embryos thoroughly (3 times) in 1×PBS, o-dianisidine staining was carried out for 30 minutes at room temperature in the dark to assess haemoglobin concentration. Embryos were then washed 3 times in 1×PBS and incubated in bleach solution for 20 minutes at room temperature. Further washing of the embryos were also carried out in 1×PBS to avoid any unnecessary staining. Quantitation of o-dianisidine staining in zebrafish embryos.
Haemoglobin quantification/total amount of the o-dianisidine staining on total embryo was calculated by using Image J software. The total embryo area and the intensity was noted by the software, by manually tracing the exact area of the embryo. The ratios of the intensity and the total embryo area was thus used to calculate the intensity per unit area which is then compared across groups (Control Mo, Egg water; RPS19 Mo, Egg water and RPS19 Mo+Saracatinib injected 1 cell stage and aqueous exposure). Percent intensity of staining of embryos was considered to be proportional to the haemoglobin concentration in each embryo and thus % improvement or recovery of erythropoiesis by administration of Saracatinib was further calculated.

For `CN1CCN(CCOc2cc(OC3CCOCC3)c3c(Nc4c(Cl)ccc5c4OCO5)ncnc3c2)CC1` [Saracatinib, N-(5-chloro-1,3-benzodioxol-4-yl)-7-[2-(4-methyl-1-piperazinyl)ethoxy]-5-[(tetrahydro-2H-pyran-4-yl)oxy]-4-quinazolinamine], the Lyn kinase activity (Lyn kinase) is given as “decrease in the Lyn kinase activity”, the Id1 expression [1] is given as “downregulates the Id1 expression” and the “Erythropoiesis / erythropoietic defect (in words)” value ([2]; 25 μM, 50 μM and 100 μM, compared to RPS19 injected morpholinos, 96 hpf, o-dianisidine staining) is given as “rescue in haemopoietic defect; also recorded: dose related improvement in erythropoiesis; also recorded: improvement in the erythropoietic defect”. The “% improvement of erythropoiesis” value ([2]; Saracatinib 25 μM, 96 hpf) was 10.49%, the “% intensity of staining” value ([2]; Saracatinib 25 μM, 96 hpf) was 2.646% and the “% improvement of erythropoiesis” value ([2]; Saracatinib 50 μM, 96 hpf) was 36.75%. For the same compound, the “% intensity of staining” value ([2]; Saracatinib 50 μM, 96 hpf) was 3.557%, the “% improvement of erythropoiesis” value ([2]; Saracatinib 100 μM, 96 hpf) was 19.82% and the “% intensity of staining” value ([2]; Saracatinib 100 μM, 96 hpf) was 3.18%. The “Haemoglobin concentration (in words)” value ([2]; compared to zebrafish treated with RPS19 morpholino) was “increased haemoglobin concentration”.
